Test results published in article PMC6209530 (Journal of the American Chemical Society, 2018).
Where two headings read alike, the source gives them in different places. One block for each compound: values may come before it. Peptide text beside a SMILES is read from it. * marks the point of attachment. X1 = CCCCCCCCCCCCCCCC(=O)OCC(C*)OC(=O)CCCCCCCCCCCCCCC; Palmitoyl = CCCCCCCCCCCCCCCC(=O)*

Columns and labels:
[1] = tested on: IKKα, IKKβ, p38, JNK, and ERK; conditions: cited from earlier work
mouse macrophages [2] = assay: cell growth inhibition; format: cell-based; conditions: read-out: IC50, cell growth inhibition
B16 mouse melanoma = assay: cell growth inhibition; format: cell-based; conditions: read-out: IC50, cell growth inhibition
mouse macrophages [3] = assay: stimulated release of TNF-α from mouse macrophages; format: cell-based; conditions: read-out: EC50, stimulated release of TNF-α
L1210 mouse leukemia = assay: cell growth inhibition; format: cell-based; conditions: read-out: IC50, cell growth inhibition
[4] = tested on: HCT116 human colon cancer; assay: cell growth inhibition; format: cell-based; conditions: read-out: IC50, cell growth inhibition
[5] = tested on: murine melanoma (B16-OVA); conditions: combination with anti-PD-L1, diprovocim/OVA i.m., cited from earlier work
human THP-1 cells = assay: cell growth inhibition; format: cell-based; conditions: read-out: IC50, cell growth inhibition
[6] = tested on: human foreskin (HFF) fibroblast cells; assay: cell growth inhibition; format: cell-based; conditions: read-out: IC50, cell growth inhibition
mice = conditions: cited from earlier work; for adjuvant activity in mice: intramuscular (i.m.) injection with antigen (OVA)
[7] = tested on: differentiated human THP-1 cells; format: cell-based
[8] = tested on: mouse (NIH/3T3) fibroblast cells; assay: cell growth inhibition; format: cell-based; conditions: read-out: IC50, cell growth inhibition
TLR1 and TLR2 = TLR1 and TLR2 (Mus musculus, UniProt Q9EPQ1+Q9QUN7); format: cell-based; conditions: 500 nM, macrophages from mutant or knockout mice
[9] = read-out: EC50, stimulated release of TNF-α, differentiated human THP-1 cells

Chain of TLR1 and TLR2 (Q9EPQ1 26-795): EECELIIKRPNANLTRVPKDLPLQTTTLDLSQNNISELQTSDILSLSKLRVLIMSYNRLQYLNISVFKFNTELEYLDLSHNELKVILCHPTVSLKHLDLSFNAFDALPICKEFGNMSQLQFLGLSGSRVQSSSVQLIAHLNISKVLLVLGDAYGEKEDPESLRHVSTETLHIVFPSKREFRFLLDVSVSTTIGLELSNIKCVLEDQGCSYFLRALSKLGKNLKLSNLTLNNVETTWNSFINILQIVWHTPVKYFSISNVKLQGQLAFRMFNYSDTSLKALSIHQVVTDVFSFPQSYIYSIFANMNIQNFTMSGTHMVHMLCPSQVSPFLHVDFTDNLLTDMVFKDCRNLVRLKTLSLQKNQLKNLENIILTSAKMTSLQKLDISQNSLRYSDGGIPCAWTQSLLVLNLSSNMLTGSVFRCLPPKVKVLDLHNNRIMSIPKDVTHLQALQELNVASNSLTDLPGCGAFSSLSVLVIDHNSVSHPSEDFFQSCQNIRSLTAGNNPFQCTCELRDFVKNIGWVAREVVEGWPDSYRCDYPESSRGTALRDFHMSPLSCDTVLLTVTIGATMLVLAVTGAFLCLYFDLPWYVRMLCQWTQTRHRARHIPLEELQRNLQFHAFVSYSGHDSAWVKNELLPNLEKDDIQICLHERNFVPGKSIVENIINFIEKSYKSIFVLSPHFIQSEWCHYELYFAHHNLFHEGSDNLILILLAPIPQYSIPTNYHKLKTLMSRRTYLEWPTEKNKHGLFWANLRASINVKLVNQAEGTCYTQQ
Chain of TLR1 and TLR2 (Q9QUN7 25-784): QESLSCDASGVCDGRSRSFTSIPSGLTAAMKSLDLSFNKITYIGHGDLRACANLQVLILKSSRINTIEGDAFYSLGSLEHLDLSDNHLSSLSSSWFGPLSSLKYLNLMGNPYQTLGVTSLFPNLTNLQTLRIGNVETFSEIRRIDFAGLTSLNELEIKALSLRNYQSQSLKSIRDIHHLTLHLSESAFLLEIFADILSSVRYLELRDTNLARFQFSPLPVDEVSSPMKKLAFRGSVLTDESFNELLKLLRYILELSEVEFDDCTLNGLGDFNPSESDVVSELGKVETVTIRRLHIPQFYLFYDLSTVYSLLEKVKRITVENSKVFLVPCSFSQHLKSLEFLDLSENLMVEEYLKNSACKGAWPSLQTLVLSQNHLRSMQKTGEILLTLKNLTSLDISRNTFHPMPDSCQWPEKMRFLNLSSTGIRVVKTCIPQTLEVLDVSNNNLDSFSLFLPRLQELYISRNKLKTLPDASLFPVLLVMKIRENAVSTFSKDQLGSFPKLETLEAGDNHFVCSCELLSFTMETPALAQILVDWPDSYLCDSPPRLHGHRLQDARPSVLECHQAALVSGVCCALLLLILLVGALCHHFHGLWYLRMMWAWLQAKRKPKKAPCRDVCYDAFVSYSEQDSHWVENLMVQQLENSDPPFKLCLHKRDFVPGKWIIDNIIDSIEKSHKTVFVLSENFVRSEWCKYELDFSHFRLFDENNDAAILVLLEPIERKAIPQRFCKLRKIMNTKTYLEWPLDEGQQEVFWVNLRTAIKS

SMILES: O=C(N[C@H]1C[C@@H]1c1ccccc1)[C@@H]1CN(C(=O)c2ccc(C(=O)N3C[C@@H](C(=O)N[C@H]4C[C@@H]4c4ccccc4)[C@H](C(=O)N[C@H]4C[C@@H]4c4ccccc4)C3)cc2)C[C@H]1C(=O)N[C@H]1C[C@@H]1c1ccccc1 [Compound 3]
phosphorylation and activation of IKKα, IKKβ, p38, JNK, and ERK [1]: induce the phosphorylation and activation
IC50 (mouse macrophages [2]): > 10000 nM
IC50 (B16 mouse melanoma): > 10000 nM
EC50 (mouse macrophages [3]): 1.3 nM
IC50 (L1210 mouse leukemia): > 10000 nM
IC50 [4]: > 10000 nM
protection from tumor rechallenge [5]: protected mice from tumor rechallenge
survival of mice implanted with B16-OVA melanoma [5]: cured or prolonged survival of mice
survival of mice implanted with B16-OVA melanoma ([5]; listed as diprovocim-1): cured or prolonged the survival of mice
IC50 (human THP-1 cells): > 10000 nM
IC50 [6]: > 10000 nM
adjuvant activity in TLR1 and TLR2 deficient mice (mice; i.m. with OVA, TLR1 and TLR2 deficient mice): inactive
adjuvant activity in mice (mice): active as an adjuvant
adjuvant activity in mice (mice; listed as Diprovocim-1): acts as an adjuvant
times more potent than Pam3CSK4 ([7]; direct side-by-side comparison, human THP-1 cells): 5–10 times
potency differential human THP-1 cells versus mouse macrophages ([7]; human versus mouse cell release of TNF-α): 10 fold
EC50 [7, 9]: 0.11 nM
IC50 [8]: > 10000 nM
dependence of activity on downstream signaling proteins (TLR1 and TLR2): dependent on TLR1/TLR2 signaling through MyD88, TIRAP, and IRAK4

SMILES: O=C(NCCc1ccc(F)cc1)[C@@H]1CN(C(=O)c2ccc(C(=O)N3C[C@@H](C(=O)NCCc4ccc(F)cc4)[C@H](C(=O)NCCc4ccc(F)cc4)C3)cc2)C[C@H]1C(=O)NCCc1ccc(F)cc1 [Compound 4]
fold more potent than the all racemate (69) ([7]; human THP-1 cells): 3 fold
EC50 [7, 9]: 50 nM

SMILES: O=C(NCCc1ccc(F)cc1)C1CN(C(=O)c2ccc(C(=O)N3CC(C(=O)NCCc4ccc(F)cc4)C(C(=O)NCCc4ccc(F)cc4)C3)cc2)CC1C(=O)NCCc1ccc(F)cc1 (centres unmarked) [Compound 69]
EC50 [7, 9]: 100 nM

EC50 [7]: 0.91 nM
SMILES: CCCCCCCCCCCCCCCC(=O)N[C@@H](CSCC(COC(=O)CCCCCCCCCCCCCCC)OC(=O)CCCCCCCCCCCCCCC)C(=O)N[C@@H](CO)C(=O)N[C@@H](CCCCN)C(=O)N[C@@H](CCCCN)C(=O)N[C@@H](CCCCN)C(=O)N[C@@H](CCCCN)C(=O)O (some centres unmarked) [Pam3CSK4, reference compound] (Palmitoyl-C(X1)SKKKK-OH; N-terminus and C-terminus assumed)
